Among the data in ChEMBL document CHEMBL1136585, “Inhibition of inosine monophosphate dehydrogenase (IMPDH) by 2-[2-(Z)-fluorovinyl]inosine 5'-monophosphate” (Bioorg Med Chem Lett, 2003) are Ki and K inact values, retold here.

Assay [1] addresses Inosine-5'-monophosphate dehydrogenase (Escherichia coli). Description: Inhibition of IMPDH (Inosine 5''-monophosphate dehydrogenase)from Escherichia coli B3 cells.
In assay [2] the test system is Inosine-5'-monophosphate dehydrogenase (Escherichia coli). The assay is described as above. This is another data set of the same source.

For the molecule `O=P(O)(O)OC[C@H]1O[C@@H](n2cnc3c(Cl)ncnc32)[C@H](O)[C@@H]1O`, the Ki (in general, the equilibrium dissociation constant of an inhibitor or competing ligand from its target) in assay [1] was found to be 62 µM.
With `O=P(O)(O)OC[C@H]1OC(n2cnc3c(O)nc(/C=C/F)nc32)[C@H](O)C1O` (single isomer, unassigned), in assay [1], the Ki came out at 1.11 µM. In addition, the K inact in assay [2] came to 0.0269 s⁻¹.
